Results on three compounds are retold here after patent US10004732B2 (Novartis AG, priority 2014, dated 2018).

The target of data set [1] is T1, PI 3-kinase alpha (Homo sapiens, UniProt P42336). The data set can be described thus: Kinase Glo Luminescent Kinase Assay (Kglo), assay A. The class given is biochemical. The settings on record: read-out: Assay A PI3Kα IC50. A general note: Kinase-Glo measures the ATP left after a reaction by luminescence.
Data set [2] concerns the target T2, PI 3-kinase beta (Homo sapiens, UniProt P42338). The data set can be described thus: Kinase Glo Luminescent Kinase Assay (Kglo), assay B. The settings on record: read-out: Assay B PI3Kβ IC50. The class given is biochemical.
Target sequence in this assay (P42338 whole entry): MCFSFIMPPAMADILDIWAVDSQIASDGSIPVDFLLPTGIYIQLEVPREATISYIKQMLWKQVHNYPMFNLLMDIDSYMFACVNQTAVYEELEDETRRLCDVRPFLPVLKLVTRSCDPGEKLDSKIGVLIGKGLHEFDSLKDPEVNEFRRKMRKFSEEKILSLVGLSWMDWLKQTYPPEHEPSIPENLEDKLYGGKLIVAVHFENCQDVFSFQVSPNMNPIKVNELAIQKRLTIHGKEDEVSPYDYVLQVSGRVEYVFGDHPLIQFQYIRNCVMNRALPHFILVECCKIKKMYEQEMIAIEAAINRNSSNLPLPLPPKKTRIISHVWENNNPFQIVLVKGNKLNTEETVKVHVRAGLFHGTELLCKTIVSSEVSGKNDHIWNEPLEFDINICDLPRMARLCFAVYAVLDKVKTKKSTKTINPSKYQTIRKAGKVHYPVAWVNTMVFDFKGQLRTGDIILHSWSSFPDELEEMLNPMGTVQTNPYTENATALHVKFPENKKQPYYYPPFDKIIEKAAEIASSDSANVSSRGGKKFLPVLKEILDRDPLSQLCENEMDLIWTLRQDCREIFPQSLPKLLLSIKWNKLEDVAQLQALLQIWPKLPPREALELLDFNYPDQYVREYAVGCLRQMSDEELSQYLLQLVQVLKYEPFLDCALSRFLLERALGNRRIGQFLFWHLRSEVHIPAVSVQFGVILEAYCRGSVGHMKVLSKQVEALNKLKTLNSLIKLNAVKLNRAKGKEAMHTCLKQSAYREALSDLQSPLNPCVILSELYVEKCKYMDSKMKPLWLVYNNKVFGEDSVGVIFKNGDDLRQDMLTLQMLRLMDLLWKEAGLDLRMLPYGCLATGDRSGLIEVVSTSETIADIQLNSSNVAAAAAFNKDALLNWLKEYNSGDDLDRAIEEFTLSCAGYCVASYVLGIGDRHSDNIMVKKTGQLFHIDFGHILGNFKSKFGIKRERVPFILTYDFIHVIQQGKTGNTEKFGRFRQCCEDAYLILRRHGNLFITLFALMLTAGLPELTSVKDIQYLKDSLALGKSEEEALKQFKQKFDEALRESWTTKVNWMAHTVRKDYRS
Target sequence in this assay (P27986 461-568 partner): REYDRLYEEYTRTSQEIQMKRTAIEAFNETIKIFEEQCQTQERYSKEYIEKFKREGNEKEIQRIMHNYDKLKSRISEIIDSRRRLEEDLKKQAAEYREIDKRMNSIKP
A further data set addresses Vps34 (Homo sapiens, UniProt Q8NEB9). The data set can be described thus: Kinase Glo Luminescent Kinase Assay (Kglo), assay C. The class given is biochemical.
Another data set addresses PI 4-kinase beta (Homo sapiens, UniProt Q9UBF8). The data set can be described thus: Kinase Glo Luminescent Kinase Assay (Kglo), assay D. The class given is biochemical. The settings on record: for pIC50: read-out: Assay D PI4Kβ IC50.
The target in data set [3] is T3, PI 3-kinase gamma (Homo sapiens, UniProt P48736). The data set can be described thus: TR-FRET Adapta assay, assay E. Type of data set: biochemical. The settings on record: read-out: Assay E PI3Kγ IC50. Background: Time-resolved FRET reads energy transfer from a long-lived donor to a nearby acceptor.
Data set [4] concerns the target T1, PI 3-kinase alpha. The data set can be described thus: Cellular assay H2, p-AKT (Ser473) in Rat-1 cells, HTRF format. The settings on record: asterisked data: version H2 (HTRF format), read-out: Assay H PI3Kα IC50. Type of data set: cell-based.
Description: (§1) Cellular Assays for PI 3-Kinase Alpha (H2), Beta (12) and Delta (J2): HTRF (Homogeneous Time Resolved Fluorescence) Format
(§2) All cell lines were cultivated in complete growth medium (DMEM high glucose GlutaMAX™ Pyruvate, 10% (v/v) fetal bovine serum, 0.1 mM MEM NEAA, 25 mM HEPES, puromycin 10 μg/mL, 100 U/ml Penicillin, 100 μg/ml Streptomycin) to 90% confluency at 37° C./5% CO2/90% humidity in a humidified CO2 incubator and were split twice a week.
(§3) Semi-automated preparation of cell lysates: For low (inhibited) controls, 0.9 mM NVP-BGT226-AF-1 in 90% (v/v) DMSO was added to the compound master plate. For compound testing, the cells were seeded at a density of 4000 (Rat-1_PI3Kdelta), 8000 (Rat-1_PI3Kalpha), or 6500 (Rat-1_PI3Kbeta) cells in 30 μl complete growth medium into cell culture treated 384-well plates and were grown at 37° C./5% CO2/90% humidity for 24 h. 10 μl of the compound predilutions were transferred to the cells.
Data set [5] deals with T2, PI 3-kinase beta. The data set can be described thus: Cellular assay I2, p-AKT (Ser473) in Rat-1 cells, HTRF format. The class given is cell-based. The settings on record: asterisked data: version I2 (HTRF format), read-out: Assay I PI3Kβ IC50.
Target sequence in this assay (P42338 whole entry): as the sequence (P42338 whole entry) above
Target sequence in this assay (Q63787 whole entry partner): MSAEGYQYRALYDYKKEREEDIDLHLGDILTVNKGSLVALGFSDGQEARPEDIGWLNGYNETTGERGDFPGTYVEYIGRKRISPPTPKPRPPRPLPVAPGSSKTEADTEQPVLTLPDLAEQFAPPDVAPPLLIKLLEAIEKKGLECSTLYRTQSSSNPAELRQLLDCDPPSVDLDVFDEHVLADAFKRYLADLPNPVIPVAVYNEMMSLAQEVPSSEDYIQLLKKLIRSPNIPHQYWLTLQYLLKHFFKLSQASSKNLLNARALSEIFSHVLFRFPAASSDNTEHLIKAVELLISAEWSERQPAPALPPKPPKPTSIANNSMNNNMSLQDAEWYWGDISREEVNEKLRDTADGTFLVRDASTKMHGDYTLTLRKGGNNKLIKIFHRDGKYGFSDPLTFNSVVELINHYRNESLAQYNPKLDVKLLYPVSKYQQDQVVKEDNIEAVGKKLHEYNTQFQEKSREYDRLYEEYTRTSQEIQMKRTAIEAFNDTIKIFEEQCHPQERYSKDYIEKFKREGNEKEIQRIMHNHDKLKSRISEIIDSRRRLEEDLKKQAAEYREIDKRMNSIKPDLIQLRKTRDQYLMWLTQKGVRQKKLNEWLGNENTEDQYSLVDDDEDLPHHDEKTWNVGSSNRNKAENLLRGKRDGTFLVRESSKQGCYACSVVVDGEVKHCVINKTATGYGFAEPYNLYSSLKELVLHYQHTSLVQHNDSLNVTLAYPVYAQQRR
Description: as §1, §2, §3
Data set [6] addresses T4, PI 3-kinase delta (Homo sapiens, UniProt O00329). The data set can be described thus: Cellular assay J2, p-AKT (Ser473) in Rat-1 cells, HTRF format. The settings on record: asterisked data: version J2 (HTRF format), read-out: Assay J PI3Kδ IC50. The class given is cell-based.
Target sequence in this assay (O00329 whole entry): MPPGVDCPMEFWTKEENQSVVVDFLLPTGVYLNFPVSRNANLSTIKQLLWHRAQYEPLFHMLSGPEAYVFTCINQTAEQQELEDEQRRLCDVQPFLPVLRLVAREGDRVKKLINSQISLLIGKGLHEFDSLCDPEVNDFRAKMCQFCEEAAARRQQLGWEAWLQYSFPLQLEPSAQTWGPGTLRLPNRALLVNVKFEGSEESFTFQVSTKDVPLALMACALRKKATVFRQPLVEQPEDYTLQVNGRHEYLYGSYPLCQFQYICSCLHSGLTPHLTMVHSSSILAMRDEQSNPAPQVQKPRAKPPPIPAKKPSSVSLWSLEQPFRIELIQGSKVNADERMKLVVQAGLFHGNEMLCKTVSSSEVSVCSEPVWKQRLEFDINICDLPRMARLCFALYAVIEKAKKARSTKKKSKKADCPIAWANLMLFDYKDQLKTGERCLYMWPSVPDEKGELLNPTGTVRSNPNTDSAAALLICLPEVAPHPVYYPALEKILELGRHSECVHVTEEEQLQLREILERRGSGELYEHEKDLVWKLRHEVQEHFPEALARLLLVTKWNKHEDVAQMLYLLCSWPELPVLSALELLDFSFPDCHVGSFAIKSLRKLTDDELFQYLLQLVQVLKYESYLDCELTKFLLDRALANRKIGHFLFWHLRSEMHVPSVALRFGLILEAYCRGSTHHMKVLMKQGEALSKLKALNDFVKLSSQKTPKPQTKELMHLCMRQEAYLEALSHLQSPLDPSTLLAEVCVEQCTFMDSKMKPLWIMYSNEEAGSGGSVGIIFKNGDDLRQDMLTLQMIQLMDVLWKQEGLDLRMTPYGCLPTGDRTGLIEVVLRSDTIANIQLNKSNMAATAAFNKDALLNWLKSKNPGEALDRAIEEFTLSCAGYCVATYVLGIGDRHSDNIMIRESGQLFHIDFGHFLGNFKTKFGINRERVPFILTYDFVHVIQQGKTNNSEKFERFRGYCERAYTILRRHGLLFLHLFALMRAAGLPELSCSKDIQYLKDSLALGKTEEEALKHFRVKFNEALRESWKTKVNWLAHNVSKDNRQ
Target sequence in this assay (Q63787 whole entry partner): as the sequence (Q63787 whole entry partner) above
Description: as §1, §2, §3
Data set [7] has as its target T3, PI 3-kinase gamma. The data set can be described thus: Cellular U937 AKT assay K2 (HTRF). Type of data set: cell-based. The settings on record: U937 cells, K2 format; read-out: Assay K2 PI3Kγ IC50.
The subject of data set [8] is IL-8-induced neutrophil shape change in human whole blood. The data set can be described thus: Whole blood neutrophil shape change assay (L). Type of data set: cell-based. The settings on record: Homo sapiens, Neutrophil, IL-8, human whole blood, read-out: Assay L WBSC IC50.
Data set [9] addresses T4, PI 3-kinase delta. The data set can be described thus: TR-FRET Adapta assay, assay F.
Target sequence in this assay (O00329 whole entry): as the sequence (O00329 whole entry) above
Target sequence in this assay (P27986 461-568 partner): as the sequence (P27986 461-568 partner) above
The nature of data set [10]: Microsomal clearance assay (M). The settings on record: intrinsic clearance in rat liver microsomes.
Description: (§4) The experiments were performed in 96-well glass plates at 37° C. on an automated Tecan EVO platform. Test compounds at a concentration of 10 mM in pure DMSO were diluted 1:1000 in water to 10 μM. […] Reactions were initiated by the addition of 150 μL of a cofactor solution containing 2 mM NADPH.
In a further data set the target is mTOR (Homo sapiens, UniProt P42345). The data set can be described thus: Lanthascreen kinase binding assay, assay G. The settings on record: Assay G mTOR IC50 (μM).
Data set [11] has as its target T1, PI 3-kinase alpha. The data set can be described thus: Cellular assay H1, p-Akt (S473) in Rat-1 cells, Surefire format. The class given is cell-based.
Excerpt: Cellular Assays for PI 3-Kinase Alpha (H1), Beta (I1) and Delta (J1): Surefire Format
AlphaScreen (Amplified Luminescent Proximity Homogeneous Assay, ALPHA, Perkin Elmer) is a non-radioactive bead-based proximity assay technology to study biomolecular interactions in a homogenous microtiter plate format. The brand name SureFire denotes AlphaScreen assays that are adapted to quantify the phosphorylation of endogenous cellular proteins in cell lysates, by using matched antibody pairs, which consist of an anti-phospho-kinase and an anti-kinase antibody. The assay allows characterization of kinase signaling in cells as well as measurement of kinase inhibitor effects.
Using Rat-1 cells stably expressing myr-HA-tagged versions of the human PI3Kdelta, PI3Kalpha, or PI3Kbeta p110 catalytic subunit isoforms, the assay was developed as a two-plate protocol in a 384-well format.
For compound testing, the cells were seeded at a density of 4000 (Rat-1_PI3Kdelta), 7500 (Rat-1_PI3Kalpha), or 6200 (Rat-1_PI3Kbeta) cells in 20 μl complete growth medium into cell culture treated 384-well plates and were grown at 37° C./5% CO2/90% humidity for 24 h. Shortly before compound transfer, the complete medium was removed, 30 μl assay buffer (DMEM high glucose, 1×MEM NEAA, 10 mM HEPES, 2 mM L-glutamine, 0.1% (w/v) BSA) was added and 10 μl of the compound predilutions were transferred to the cells.
For data set [12], the target named is T2, PI 3-kinase beta. The data set can be described thus: Cellular assay I1, p-Akt (S473) in Rat-1 cells, Surefire format. Type of data set: cell-based.
Target sequence in this assay (P42338 whole entry): as the sequence (P42338 whole entry) above
Target sequence in this assay (Q63787 whole entry partner): as the sequence (Q63787 whole entry partner) above
The target in data set [13] is T4, PI 3-kinase delta. The data set can be described thus: Cellular assay J1, p-Akt (S473) in Rat-1 cells, Surefire format. Type of data set: cell-based.
Target sequence in this assay (O00329 whole entry): as the sequence (O00329 whole entry) above
Target sequence in this assay (Q63787 whole entry partner): as the sequence (Q63787 whole entry partner) above
Data set [14] concerns the target T3, PI 3-kinase gamma. The data set can be described thus: Cellular U937 AKT assay K1 (MSD). The settings on record: U937 cells, K1 format; read-out: Assay K1 PI3Kγ IC50. The class given is cell-based.
For data set [15] the following is noted: rat, microsomes, 1 µM, pH 7.4.
Description: as §4

pIC50: −log10 of the molar value. Where two headings read alike, the source gives them in different places. Bounds are passed on as bounds.

Vps34, sequence (Q8NEB9 whole entry, species assumed): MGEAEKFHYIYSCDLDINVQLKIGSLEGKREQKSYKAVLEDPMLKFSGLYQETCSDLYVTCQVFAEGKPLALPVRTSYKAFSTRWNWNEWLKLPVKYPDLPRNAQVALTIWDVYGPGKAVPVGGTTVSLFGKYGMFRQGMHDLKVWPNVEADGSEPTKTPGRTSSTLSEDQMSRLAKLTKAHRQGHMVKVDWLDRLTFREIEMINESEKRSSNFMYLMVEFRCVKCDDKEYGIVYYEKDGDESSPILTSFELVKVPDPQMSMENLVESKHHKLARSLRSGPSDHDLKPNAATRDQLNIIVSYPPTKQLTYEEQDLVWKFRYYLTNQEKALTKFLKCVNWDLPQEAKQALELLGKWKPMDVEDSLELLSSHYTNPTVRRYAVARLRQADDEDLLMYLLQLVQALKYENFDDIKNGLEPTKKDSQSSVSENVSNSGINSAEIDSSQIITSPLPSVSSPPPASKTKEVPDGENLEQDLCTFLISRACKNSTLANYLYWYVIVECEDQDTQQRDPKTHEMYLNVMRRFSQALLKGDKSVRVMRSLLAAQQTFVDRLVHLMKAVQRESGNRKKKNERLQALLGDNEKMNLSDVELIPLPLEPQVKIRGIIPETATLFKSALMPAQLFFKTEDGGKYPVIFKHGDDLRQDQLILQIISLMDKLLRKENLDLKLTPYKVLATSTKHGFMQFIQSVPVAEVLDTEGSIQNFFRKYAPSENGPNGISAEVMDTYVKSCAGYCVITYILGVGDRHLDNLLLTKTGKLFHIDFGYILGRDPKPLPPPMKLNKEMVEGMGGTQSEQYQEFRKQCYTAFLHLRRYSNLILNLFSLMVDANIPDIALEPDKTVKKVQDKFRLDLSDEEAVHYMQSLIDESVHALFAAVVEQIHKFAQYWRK
PI 4-kinase beta, sequence (Q9UBF8 whole entry): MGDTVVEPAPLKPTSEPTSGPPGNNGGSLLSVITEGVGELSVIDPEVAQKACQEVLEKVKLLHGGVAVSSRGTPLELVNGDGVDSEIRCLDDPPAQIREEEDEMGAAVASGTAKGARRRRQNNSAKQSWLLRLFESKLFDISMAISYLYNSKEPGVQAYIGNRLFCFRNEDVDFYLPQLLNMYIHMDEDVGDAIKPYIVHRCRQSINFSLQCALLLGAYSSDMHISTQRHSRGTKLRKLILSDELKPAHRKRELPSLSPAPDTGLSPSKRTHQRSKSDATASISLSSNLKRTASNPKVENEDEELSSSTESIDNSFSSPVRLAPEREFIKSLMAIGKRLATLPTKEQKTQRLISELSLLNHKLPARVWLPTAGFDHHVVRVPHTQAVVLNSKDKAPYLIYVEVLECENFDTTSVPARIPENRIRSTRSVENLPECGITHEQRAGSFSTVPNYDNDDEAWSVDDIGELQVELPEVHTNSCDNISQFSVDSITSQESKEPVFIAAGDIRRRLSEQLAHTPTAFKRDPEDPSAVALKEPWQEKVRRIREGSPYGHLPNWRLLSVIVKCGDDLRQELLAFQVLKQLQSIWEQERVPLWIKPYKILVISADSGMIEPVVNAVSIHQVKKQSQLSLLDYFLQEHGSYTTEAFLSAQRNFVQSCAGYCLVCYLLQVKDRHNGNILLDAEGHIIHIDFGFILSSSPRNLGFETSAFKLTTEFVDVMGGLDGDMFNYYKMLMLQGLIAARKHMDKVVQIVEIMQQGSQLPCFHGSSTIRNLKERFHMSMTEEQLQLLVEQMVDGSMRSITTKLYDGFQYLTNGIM
Description for PI 4-kinase beta: Kinase Glo Luminescent Kinase Assay (Kglo) for Pb 3-Kinase Alpha (A), Pb 3-Kinase Beta (B), Vps34 (C), Pb 4-Kinase Beta (D)
The Kinase Glo Luminescent Kinase Assay (Promega, Madison/Wis., USA) is a homogeneous HTS method of measuring kinase activity by quantifying the amount of ATP remaining in solution following a kinase reaction.
L-α-phosphatidylinositol (PI), provided as 10 mg/ml solution in methanol, was transferred into a glass tube and dried under a nitrogen beam. It was then resuspended in 3% OctylGlucoside (1-0-n-octyl-beta-D-glucopyranoside) by vortexing and stored at 4° C. 5 μL of a mix of PI/OctylGlucoside with the PI 3-kinase alpha and PI 3-kinase beta subtypes, or Vps34 or PI 4-kinase beta were added. Kinase reactions were started by the addition of 5 μl of an ATP-mix containing in a final volume 10 μL 10 mM TRIS-HCl pH 7.5, 3 mM MgCl2, 50 mM NaCl, 0.05% CHAPS, 1 mM DTT and 1 μM ATP at room temperature.
All fits were performed with the program XLfit4 (ID Business Solutions, Guildford, UK).
Description for mTOR: Lanthascreen™ Kinase Binding Assay for mTOR (G)
Binding of an inhibitor to the kinase competes for binding with the tracer, resulting in a loss of FRET.
50 nL of compound dilutions were dispensed onto white 384-well small volume polystyrene plate.

In general, pIC50 refers to −log10 of the IC50, conventionally taken in molar units. Regarding `Cc1ncc(-c2nc(-c3cc(S(=O)(=O)N[C@H]4C[C@@H](O)C4)ccc3C)cnc2N)s1` [Example 43a, cis-3-(5-Amino-6-(2-methylthiazol-5-yl)pyrazin-2-yl)-N-(3-hydroxycyclobutyl)-4-methylbenzenesulfonamide], the pIC50 on PI 3-kinase alpha [1] was 7.00; at PI 3-kinase beta [2] it was 6.16; at Vps34 (read-out: Assay C VPS34 IC50) it was 5.60; at PI 4-kinase beta it was 5.64; on PI 3-kinase gamma [3], 7.59; on PI 3-kinase alpha [4] it was 5.67. The pIC50 on PI 3-kinase beta [5] is 5.34; on PI 3-kinase delta [6], 6.01; on PI 3-kinase gamma [7] it was 7.17; in [8], 6.00; at PI 3-kinase delta [9], 6.17. Moreover, the “Assay M RLM CI(int)” value in data set [10] came out at 63 µL/min/mg.
For `Cc1ncc(-c2nc(-c3cc(S(=O)(=O)N[C@H]4C[C@H](O)C4)ccc3C)cnc2N)s1` [Example 43b, trans-3-(5-Amino-6-(2-methylthiazol-5-yl)pyrazin-2-yl)-N-(3-hydroxycyclobutyl)-4-methylbenzenesulfonamide], the pIC50 on PI 3-kinase alpha [1] was 6.64; on PI 3-kinase beta [2] it was 5.82; at Vps34 (read-out: Assay C VPS34 IC50), 5.26; at PI 4-kinase beta it was 5.32; at PI 3-kinase gamma [3], 7.38; at PI 3-kinase alpha [4] it was 5.26. For the same compound, the pIC50 at PI 3-kinase beta [5] is 5.53; at PI 3-kinase delta [6], 5.66; on PI 3-kinase gamma [7] it was 6.74; against PI 3-kinase delta [9] it was 5.66. Besides, the “Assay M RLM CI(int)” value in data set [10] came to 45 µL/min/mg.
What is called IC50 is the concentration that inhibits the measured activity by half. As to `Cc1ccc(S(=O)(=O)NC2CCOCC2)cc1-c1cnc(N)c(-n2cncn2)n1` [Example 68, 3-(5-Amino-6-(1H-1,2,4-triazol-1-yl)pyrazin-2-yl)-4-methyl-N-(tetrahydro-2H-pyran-4-yl)benzenesulfonamide], the pIC50 on PI 3-kinase alpha [1] is 6.19; on PI 3-kinase beta [2], 5.59; at Vps34 it was less than 5.00; at PI 3-kinase gamma [3], 7.14; at PI 3-kinase alpha [11] it was 5.55; against PI 3-kinase beta [12], 5.20. The pIC50 on PI 3-kinase delta [13] was 5.51; on PI 3-kinase gamma [14] it was 6.37; in data set [8], 5.75; on PI 3-kinase delta [9] (read-out: Assay F PI3Kδ IC50), 5.82. Also, the results for the IC50 against PI 4-kinase beta (Assay D PI4Kβ IC50 (μM)) and at mTOR were 4.4 µM and 8.75 µM, respectively. Moreover, the “Assay M RLM CI(int)” value in data set [15] was found to be 54 µL/min/mg.
